PubChem BioAssay (NCI)
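GI50: concentration for 50% inhibition of growth. TGI: concentration producing complete growth inhibition.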

Assays:
Experiment in all cases: inhibition of tumour cell growth, NCI panel, 384-well format
786-0 renal = system: 786-0 renal
A498 renal = system: A498 renal
A549 NSCLC = system: A549 NSCLC
ACHN renal = system: ACHN renal
BT-549 breast = system: BT-549 breast
CAKI-1 renal = system: CAKI-1 renal
CCRF-CEM leukemia = system: CCRF-CEM leukemia
DU-145 prostate = system: DU-145 prostate
EKVX NSCLC = system: EKVX NSCLC
HCT-116 colon = system: HCT-116 colon
HCT-15 colon = system: HCT-15 colon
HL-60(TB) leukemia = system: HL-60(TB) leukemia
HOP-62 NSCLC = system: HOP-62 NSCLC
HOP-92 NSCLC = system: HOP-92 NSCLC
HS 578T breast = system: HS 578T breast
HT29 colon = system: HT29 colon
IGROV1 ovarian = system: IGROV1 ovarian
K-562 leukemia = system: K-562 leukemia
KM12 colon = system: KM12 colon
LOX IMVI melanoma = system: LOX IMVI melanoma
M14 melanoma = system: M14 melanoma
MALME-3M melanoma = system: MALME-3M melanoma
MCF7 breast = system: MCF7 breast
MDA-MB-231 breast = system: MDA-MB-231 breast
MDA-MB-435 melanoma = system: MDA-MB-435 melanoma
MDA-MB-468 breast = system: MDA-MB-468 breast
MOLT-4 leukemia = system: MOLT-4 leukemia
NCI-H226 lung = system: NCI-H226 lung
NCI-H23 lung = system: NCI-H23 lung
NCI-H322M lung = system: NCI-H322M lung
NCI-H522 lung = system: NCI-H522 lung
NCI/ADR-RES ovarian = system: NCI/ADR-RES ovarian
OVCAR-3 ovarian = system: OVCAR-3 ovarian
OVCAR-4 ovarian = system: OVCAR-4 ovarian
OVCAR-5 ovarian = system: OVCAR-5 ovarian
OVCAR-8 ovarian = system: OVCAR-8 ovarian
PC-3 prostate = system: PC-3 prostate
RPMI-8226 leukemia = system: RPMI-8226 leukemia
RXF 393 renal = system: RXF 393 renal
SF-268 CNS = system: SF-268 CNS
SF-295 CNS = system: SF-295 CNS
SF-539 CNS = system: SF-539 CNS
SK-MEL-2 melanoma = system: SK-MEL-2 melanoma
SK-MEL-28 melanoma = system: SK-MEL-28 melanoma
SK-OV-3 ovarian = system: SK-OV-3 ovarian
SN12C renal = system: SN12C renal
SNB-19 CNS = system: SNB-19 CNS
SNB-75 CNS = system: SNB-75 CNS
SW-620 colon = system: SW-620 colon
T-47D breast = system: T-47D breast
TK-10 renal = system: TK-10 renal
U251 glioblastoma = system: U251 glioblastoma
UACC-257 melanoma = system: UACC-257 melanoma
UACC-62 melanoma = system: UACC-62 melanoma
UO-31 renal = system: UO-31 renal

CN(N=O)C(=O)N[C@@H](C=O)[C@@H](O)[C@H](O)[C@H](O)CO
GI50 ([…]-0 renal): > 100 µM
TGI (786-0 renal): > 100 µM
GI50 (A498 renal): > 100 µM
TGI (A498 renal): > 100 µM
GI50 (A549 NSCLC): > 100 µM
TGI (A549 NSCLC): > 100 µM
GI50 (ACHN renal): > 100 µM
TGI (ACHN renal): > 100 µM
GI50 (BT-549 breast): > 100 µM
TGI (BT-549 breast): > 100 µM
GI50 (CAKI-1 renal): > 100 µM
TGI (CAKI-1 renal): > 100 µM
GI50 (CCRF-CEM leukemia): > 100 µM
TGI (CCRF-CEM leukemia): > 100 µM
GI50 (DU-145 prostate): > 100 µM
TGI (DU-145 prostate): > 100 µM
GI50 (EKVX NSCLC): > 100 µM
TGI (EKVX NSCLC): > 100 µM
GI50 (HCT-116 colon): > 100 µM
TGI (HCT-116 colon): > 100 µM
GI50 (HCT-15 colon): > 100 µM
TGI (HCT-15 colon): > 100 µM
GI50 (HL-60(TB) leukemia): > 100 µM
TGI (HL-60(TB) leukemia): > 100 µM
GI50 (HOP-62 NSCLC): > 100 µM
TGI (HOP-62 NSCLC): > 100 µM
GI50 (HOP-92 NSCLC): > 100 µM
TGI (HOP-92 NSCLC): > 100 µM
GI50 (HS 578T breast): > 100 µM
TGI (HS 578T breast): > 100 µM
GI50 (HT29 colon): > 100 µM
TGI (HT29 colon): > 100 µM
GI50 (IGROV1 ovarian): > 100 µM
TGI (IGROV1 ovarian): > 100 µM
GI50 (K-562 leukemia): > 100 µM
TGI (K-562 leukemia): > 100 µM
GI50 (KM12 colon): > 100 µM
TGI (KM12 colon): > 100 µM
GI50 (LOX IMVI melanoma): > 100 µM
TGI (LOX IMVI melanoma): > 100 µM
GI50 (M14 melanoma): > 100 µM
TGI (M14 melanoma): > 100 µM
GI50 (MALME-3M melanoma): > 100 µM
TGI (MALME-3M melanoma): > 100 µM
GI50 (MCF7 breast): > 100 µM
TGI (MCF7 breast): > 100 µM
GI50 (MDA-MB-231 breast): > 100 µM
TGI (MDA-MB-231 breast): > 100 µM
GI50 (MDA-MB-435 melanoma): > 100 µM
TGI (MDA-MB-435 melanoma): > 100 µM
GI50 (MDA-MB-468 breast): > 100 µM
TGI (MDA-MB-468 breast): > 100 µM
GI50 (MOLT-4 leukemia): > 100 µM
TGI (MOLT-4 leukemia): > 100 µM
GI50 (NCI-H226 lung): > 100 µM
TGI (NCI-H226 lung): > 100 µM
GI50 (NCI-H23 lung): > 100 µM
TGI (NCI-H23 lung): > 100 µM
GI50 (NCI-H322M lung): > 100 µM
TGI (NCI-H322M lung): > 100 µM
GI50 (NCI-H522 lung): > 100 µM
TGI (NCI-H522 lung): > 100 µM
GI50 (NCI/ADR-RES ovarian): > 100 µM
TGI (NCI/ADR-RES ovarian): > 100 µM
GI50 (OVCAR-3 ovarian): > 100 µM
TGI (OVCAR-3 ovarian): > 100 µM
GI50 (OVCAR-4 ovarian): > 100 µM
TGI (OVCAR-4 ovarian): > 100 µM
GI50 (OVCAR-5 ovarian): > 100 µM
TGI (OVCAR-5 ovarian): > 100 µM
GI50 (OVCAR-8 ovarian): > 100 µM
TGI (OVCAR-8 ovarian): > 100 µM
GI50 (PC-3 prostate): > 100 µM
TGI (PC-3 prostate): > 100 µM
GI50 (RPMI-8226 leukemia): > 100 µM
TGI (RPMI-8226 leukemia): > 100 µM
GI50 (RXF 393 renal): > 100 µM
TGI (RXF 393 renal): > 100 µM
GI50 (SF-268 CNS): > 100 µM
TGI (SF-268 CNS): > 100 µM
GI50 (SF-295 CNS): > 100 µM
TGI (SF-295 CNS): > 100 µM
GI50 (SF-539 CNS): > 100 µM
TGI (SF-539 CNS): > 100 µM
GI50 (SK-MEL-2 melanoma): > 100 µM
TGI (SK-MEL-2 melanoma): > 100 µM
GI50 (SK-MEL-28 melanoma): > 100 µM
TGI (SK-MEL-28 melanoma): > 100 µM
GI50 (SK-OV-3 ovarian): > 100 µM
TGI (SK-OV-3 ovarian): > 100 µM
GI50 (SN12C renal): > 100 µM
TGI (SN12C renal): > 100 µM
GI50 (SNB-19 CNS): > 100 µM
TGI (SNB-19 CNS): > 100 µM
GI50 (SNB-75 CNS): > 100 µM
TGI (SNB-75 CNS): > 100 µM
GI50 (SW-620 colon): > 100 µM
TGI (SW-620 colon): > 100 µM
GI50 (T-47D breast): > 100 µM
TGI (T-47D breast): > 100 µM
GI50 (TK-10 renal): > 100 µM
TGI (TK-10 renal): > 100 µM
GI50 (U251 glioblastoma): > 100 µM
TGI (U251 glioblastoma): > 100 µM
GI50 (UACC-257 melanoma): > 100 µM
TGI (UACC-257 melanoma): > 100 µM
GI50 (UACC-62 melanoma): > 100 µM
TGI (UACC-62 melanoma): > 100 µM
GI50 (UO-31 renal): > 100 µM
TGI (UO-31 renal): > 100 µM
